In patent publication US20260315483A1, “HETEROCYCLIC COMPOUNDS AS TRIGGERING RECEPTOR EXPRESSED ON MYELOID CELLS 2 AGONISTS AND METHODS OF USE” (VIGIL NEUROSCIENCE, INC., priority 2023, published 2026):

Target: T1, human TREM2 (Homo sapiens, UniProt Q9NZC2)
T1 construct: expressed in transfected cells; host or cells: HEK293T-hTREM2 cells (HEK cell line expressing human TREM2 and DAP12)
Experiment: In vitro measurement of TREM2 activity using cellular phosphorylation of spleen tyrosine kinase (Syk), AlphaLisa, HEK293T-hTREM2 cells
Assay type: cell-based
Details: HEK293T cells expressing human TREM2 and DAP12, 45 min at room temperature, Table D-2
Description: In Vitro Measurement of Triggering Receptor Expressed on Myeloid Cells 2 Activity Using Cellular Phosphorylation of Spleen Tyrosine Kinase (“Syk”) Assays
Measurement of TREM2 agonist potency was done using a HEK cell line expressing human TREM2 and DAP12 (HEK293T-hTREM2 cells). Binding of small molecules to, and activation of, TREM2 increases the phosphorylation of Syk. The resultant levels of Syk phosphorylation are measured using a commercial AlphaLisa reagent kit. To perform the assay, HEK-hTREM2 cells were plated at 14,000 cells per well in a 384 well plate, in 25 μL of complete growth media and incubated at 37° C., 5% CO2 for 20-24 hours.
Prior to the assay, test compounds were diluted in the 384 well plates in assay buffer and allowed to equilibrate for 30 minutes. Growth media was removed from cell plates by inversion on blotting paper, and 25 μL of test articles in assay buffer was added to cells. Cells were incubated for 45 minutes at room temperature. After 45 minutes, assay buffer was removed and 10 μL of lysis buffer was added. Plates were shaken for 20 minutes at 350 RPM at room temperature. After complete lysis, AlphaLisa reagents were added to the lysate, and fluourescence intensity was measured using a Perkin Elmer Envision plate reader. Intensities were used to generate a standard curve, and % activation was calculated. Curve fitting was performed using Prism v9 software, log(agonist) vs response—variable slope (four parameters), and EC50s were calculated from the curve fit.
The results presented in Tables D and D-2 have been generated with the in vitro assay described above. This assay may be used to test any of the compounds described herein to assess and characterize a compound's ability to act as an agonist of TREM2.

T1 sequence (Q9NZC2 19-230): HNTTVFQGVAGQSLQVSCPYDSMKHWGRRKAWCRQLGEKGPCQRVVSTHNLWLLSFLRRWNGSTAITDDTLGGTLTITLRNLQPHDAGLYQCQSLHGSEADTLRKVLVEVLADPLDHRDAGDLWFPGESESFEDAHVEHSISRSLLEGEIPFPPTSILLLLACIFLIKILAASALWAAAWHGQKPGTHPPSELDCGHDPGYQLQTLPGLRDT
T1 sequence (O43914 22-113 partner): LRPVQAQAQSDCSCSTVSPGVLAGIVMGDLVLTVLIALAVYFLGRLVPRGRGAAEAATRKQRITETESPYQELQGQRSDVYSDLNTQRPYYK

Row | EC50 [nM] | SMILES
1 | 50 to 500 | CN1Cc2c(cc([C@H]3CCO[C@@H](c4cnn(C5CC5)c4)C3)nc2C23CC(C(F)(F)F)(C2)C3)C1=O [compound 226]
2 | ≤ 50 | C[C@@H]1CN(c2cc3c(c(-c4ccc(C(F)(F)F)cc4F)n2)CN(c2ccn(C)n2)C3=O)C[C@H](c2cnn(C3CC3)c2)O1 [compound 228, 6-((2S,6R)-2-(1-cyclopropyl-1H-pyrazol-4-yl)-6-methylmorpholino)-4-(2-fluoro-4-(trifluoromethyl)phenyl)-2-(1-methyl-1H-pyrazol-3-yl)-2,3-dihydro-1H-pyrrolo[3,4-c]pyridin-1-one]
